{"source": "patent US6713509B1", "about": "“Controlled release formulation for treating COPD” (SmithKline Beecham Corporation, priority 1999, dated 2004)", "key": {"PDE 4": {"system": "PDE 4", "assay": "IC50 ratio (high/low affinity rolipram binding forms of PDE 4)", "format": "biochemical", "conditions": "IC50 for competing with 1 nM [3H]R-rolipram binding (high affinity form) over IC50 for PDE 4 catalytic activity (low affinity form), 1 uM [3H]-cAMP", "from_the_text": "This invention covers controlled release formulations which contain a PDE 4 inhibitor, particularly an inhibitor that is specific for PDE 4. A preferred group of inhibitors are those that have an IC50 ratio (high/low binding) of about 0.1 or greater as further described in co-pending U.S. application Ser. No. 08/456,274, now U.S. Pat. No. 6,143,782 and its published counter-part PCT application serial number published Jan. 05, 1995 as WO95/00139; this application is incorporated herein in full by reference as if fully set forth herein. A preferred standard for PDE 4-specific inhibitors which can be used in this invention is one where the compound has an IC50 ratio of about 0.1 or greater; said ratio being the ratio of the IC50 value for competing with the binding of 1 nM of [^3H]R-rolipram to a form of PDE 4 which binds rolipram with a high affinity over the IC50 value for inhibiting the PDE 4 catalytic activity of a form which binds rolipram with a low affinity using 1 uM[^3H]-cAMP as the substrate."}, "[1]": {"assay": "stability of Carbopol-based controlled release tablet versus moisture level", "format": "physicochemical", "conditions": "moisture removed from the system", "from_the_text": "Low moisture levels in certain Carbopol-based controlled release preparations may compromise the stability of the active ingredient cis-4-cyano-4-[3-(cyclopentyloxy)-4-methoxyphenyl]cyclohexane-1-carboxylic acid. High moisture levels may compromise the release rate of such formulations.\nIt is not known why this occurs when the moisture level is below 0.5% nor is it known how to stop this from occuring, other than to maintain the specified levels of hydration.\nThe technique for measuring moisture level in this representative tablet was as follows:\nThe analysis was performed using a Omnimark MARK2 Moisture Analyzer. The Unit determines the moisture content using Infrared heat to dry the sample at a programmed temperature of 120° Celsius with a standby temperature of 80° Celsius. It calculates the percent loss on drying from the initial weight and the final weight of the sample. The results are printed out as % w/w automatically when the analysis is finished. The analysis usually takes 2 to 3 minutes for one measurement of a sample with a moisture level of less than 1.5%w/w."}, "[2]": {"assay": "oral administration of the PDE4 inhibitor in COPD: effect and side effects", "format": "in vivo"}}}
{"smiles": "COc1ccc([C@]2(C#N)CC[C@@H](C(=O)O)CC2)cc1OC1CCCC1", "note": "[cis-4-cyano-4-[3-(cyclopentyloxy)-4-methoxyphenyl]cyclohexane-1-carboxylic acid]", "values": [{"measurement": "therapeutic ratio (IC50 ratio high/low binding)", "setting": "PDE 4", "result": "greater than 0.1"}, {"measurement": "stability in combination with dibasic calcium phosphate (anhydrous)", "setting": "[1]", "result": "appears to be unstable when moisture is removed from the system"}, {"measurement": "therapeutic effect in COPD", "setting": "[2]; administered orally, at certain doses", "result": "achieve an effective therapeutic effect in COPD at certain doses"}, {"measurement": "side effects", "setting": "[2]; as blood levels increase with increased levels of dosing", "result": "undesirable side effects such as those attributed to CNS activity begin to be manifested"}]}
